The text below walks through data of patent US6608086B2, “Dihydropyridines and new uses thereof” (Synaptic Pharmaceutical Corporation, priority 1993, dated 2003).

For data set [1], the target named is T1, α1B Human Adrenergic Receptor (Homo sapiens, UniProt P35368).
T1 construct: The entire coding region of α1B (1563 bp); expressed in transfected cells
T1 sequence (P35368 1-520): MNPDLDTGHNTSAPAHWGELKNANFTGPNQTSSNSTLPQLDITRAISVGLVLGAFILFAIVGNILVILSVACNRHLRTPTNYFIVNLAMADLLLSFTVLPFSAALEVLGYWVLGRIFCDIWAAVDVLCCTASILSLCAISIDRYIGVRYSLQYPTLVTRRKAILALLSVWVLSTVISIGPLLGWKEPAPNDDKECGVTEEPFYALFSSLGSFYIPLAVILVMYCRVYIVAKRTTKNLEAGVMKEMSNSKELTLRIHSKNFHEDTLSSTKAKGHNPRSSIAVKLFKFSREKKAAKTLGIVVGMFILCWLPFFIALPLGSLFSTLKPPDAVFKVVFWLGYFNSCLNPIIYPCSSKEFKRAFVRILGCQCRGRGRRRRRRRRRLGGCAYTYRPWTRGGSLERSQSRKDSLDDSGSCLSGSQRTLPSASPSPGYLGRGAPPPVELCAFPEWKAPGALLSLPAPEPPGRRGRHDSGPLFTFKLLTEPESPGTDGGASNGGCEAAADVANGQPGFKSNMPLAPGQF
The data set can be described thus: Radioligand binding, [3H]prazosin, cloned human α1B adrenergic receptor. A digest of the protocol: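 [3H]prazosin (0.5 nM) binding was run for 20 min at 37° C in pH 7.5 Tris/MgCl2/ascorbate buffer on membranes of LM(tk−) cells stably expressing the cloned receptor. Filtration through GF/B ended the reaction; 10 μM phentolamine gave nonspecific binding.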

Data set [2] deals with T2, α1A Human Adrenergic Receptor (Homo sapiens, UniProt P25100).
T2 construct: The entire coding region of α1A (1719 bp); expressed in transfected cells
T2 sequence (P25100 1-572): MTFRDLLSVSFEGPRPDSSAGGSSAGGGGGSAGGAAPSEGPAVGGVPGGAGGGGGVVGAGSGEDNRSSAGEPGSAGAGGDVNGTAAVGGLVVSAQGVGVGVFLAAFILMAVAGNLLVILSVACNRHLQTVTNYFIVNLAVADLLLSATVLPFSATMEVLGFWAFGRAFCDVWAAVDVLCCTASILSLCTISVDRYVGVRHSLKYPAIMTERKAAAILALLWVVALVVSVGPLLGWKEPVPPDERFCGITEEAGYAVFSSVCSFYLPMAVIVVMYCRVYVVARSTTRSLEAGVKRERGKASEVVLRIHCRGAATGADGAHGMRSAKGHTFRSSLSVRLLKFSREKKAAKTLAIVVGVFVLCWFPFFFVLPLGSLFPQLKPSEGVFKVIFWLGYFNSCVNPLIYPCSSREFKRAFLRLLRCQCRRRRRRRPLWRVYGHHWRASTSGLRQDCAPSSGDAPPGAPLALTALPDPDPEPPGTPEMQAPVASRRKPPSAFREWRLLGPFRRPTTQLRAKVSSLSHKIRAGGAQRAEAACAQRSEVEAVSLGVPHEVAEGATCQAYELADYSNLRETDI
The experiment in a line: Radioligand binding, [3H]prazosin, cloned human α1A adrenergic receptor. As to conditions: [3H]prazosin. Summed up:
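In pH 7.5 Tris/MgCl2/ascorbic acid buffer, α1A-expressing LM(tk−) membranes are exposed to 0.5 nM [3H]prazosin (37° C, 20 min). Excess phentolamine (10 μM) marks nonspecific binding before rapid filtration.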

The target of data set [3] is T3, α1C Human Adrenergic Receptor (Homo sapiens, UniProt P35348).
T3 construct: The entire coding region of α1C (1401 bp); expressed in transfected cells
T3 sequence (P35348 1-466): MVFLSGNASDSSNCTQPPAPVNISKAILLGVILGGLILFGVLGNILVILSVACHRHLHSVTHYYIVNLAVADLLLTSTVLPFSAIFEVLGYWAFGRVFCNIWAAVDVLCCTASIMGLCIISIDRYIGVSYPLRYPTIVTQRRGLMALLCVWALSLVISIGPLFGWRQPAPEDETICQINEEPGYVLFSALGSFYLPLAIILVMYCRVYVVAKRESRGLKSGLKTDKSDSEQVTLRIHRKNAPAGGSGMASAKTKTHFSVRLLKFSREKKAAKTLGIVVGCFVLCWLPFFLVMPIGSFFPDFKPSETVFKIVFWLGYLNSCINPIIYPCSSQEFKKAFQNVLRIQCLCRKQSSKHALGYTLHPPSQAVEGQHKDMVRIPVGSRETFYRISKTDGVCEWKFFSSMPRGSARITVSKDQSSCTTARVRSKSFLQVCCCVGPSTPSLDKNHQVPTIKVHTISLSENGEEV
The data set can be described thus: Radioligand binding, [3H]prazosin, cloned human α1C adrenergic receptor. A digest of the protocol: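 Membranes from LM(tk−) cells stably expressing the cloned human α1C receptor were incubated with 0.5 nM [3H]prazosin at 37° C. for 20 min in 50 mM Tris-HCl, 1 mM MgCl2, 0.1% ascorbic acid, pH 7.5. Nonspecific binding was defined with 10 μM phentolamine, and bound ligand was separated by GF/B filtration.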

Another data set deals with T4, L-type calcium channel (Rattus norvegicus, UniProt P22002).
T4 construct: membrane fragments of rat cardiac muscle; from tissue; host or cells: rat cardiac muscle membranes
T4 sequence (P22002 whole entry, other chains not shown, the tested form may be a part): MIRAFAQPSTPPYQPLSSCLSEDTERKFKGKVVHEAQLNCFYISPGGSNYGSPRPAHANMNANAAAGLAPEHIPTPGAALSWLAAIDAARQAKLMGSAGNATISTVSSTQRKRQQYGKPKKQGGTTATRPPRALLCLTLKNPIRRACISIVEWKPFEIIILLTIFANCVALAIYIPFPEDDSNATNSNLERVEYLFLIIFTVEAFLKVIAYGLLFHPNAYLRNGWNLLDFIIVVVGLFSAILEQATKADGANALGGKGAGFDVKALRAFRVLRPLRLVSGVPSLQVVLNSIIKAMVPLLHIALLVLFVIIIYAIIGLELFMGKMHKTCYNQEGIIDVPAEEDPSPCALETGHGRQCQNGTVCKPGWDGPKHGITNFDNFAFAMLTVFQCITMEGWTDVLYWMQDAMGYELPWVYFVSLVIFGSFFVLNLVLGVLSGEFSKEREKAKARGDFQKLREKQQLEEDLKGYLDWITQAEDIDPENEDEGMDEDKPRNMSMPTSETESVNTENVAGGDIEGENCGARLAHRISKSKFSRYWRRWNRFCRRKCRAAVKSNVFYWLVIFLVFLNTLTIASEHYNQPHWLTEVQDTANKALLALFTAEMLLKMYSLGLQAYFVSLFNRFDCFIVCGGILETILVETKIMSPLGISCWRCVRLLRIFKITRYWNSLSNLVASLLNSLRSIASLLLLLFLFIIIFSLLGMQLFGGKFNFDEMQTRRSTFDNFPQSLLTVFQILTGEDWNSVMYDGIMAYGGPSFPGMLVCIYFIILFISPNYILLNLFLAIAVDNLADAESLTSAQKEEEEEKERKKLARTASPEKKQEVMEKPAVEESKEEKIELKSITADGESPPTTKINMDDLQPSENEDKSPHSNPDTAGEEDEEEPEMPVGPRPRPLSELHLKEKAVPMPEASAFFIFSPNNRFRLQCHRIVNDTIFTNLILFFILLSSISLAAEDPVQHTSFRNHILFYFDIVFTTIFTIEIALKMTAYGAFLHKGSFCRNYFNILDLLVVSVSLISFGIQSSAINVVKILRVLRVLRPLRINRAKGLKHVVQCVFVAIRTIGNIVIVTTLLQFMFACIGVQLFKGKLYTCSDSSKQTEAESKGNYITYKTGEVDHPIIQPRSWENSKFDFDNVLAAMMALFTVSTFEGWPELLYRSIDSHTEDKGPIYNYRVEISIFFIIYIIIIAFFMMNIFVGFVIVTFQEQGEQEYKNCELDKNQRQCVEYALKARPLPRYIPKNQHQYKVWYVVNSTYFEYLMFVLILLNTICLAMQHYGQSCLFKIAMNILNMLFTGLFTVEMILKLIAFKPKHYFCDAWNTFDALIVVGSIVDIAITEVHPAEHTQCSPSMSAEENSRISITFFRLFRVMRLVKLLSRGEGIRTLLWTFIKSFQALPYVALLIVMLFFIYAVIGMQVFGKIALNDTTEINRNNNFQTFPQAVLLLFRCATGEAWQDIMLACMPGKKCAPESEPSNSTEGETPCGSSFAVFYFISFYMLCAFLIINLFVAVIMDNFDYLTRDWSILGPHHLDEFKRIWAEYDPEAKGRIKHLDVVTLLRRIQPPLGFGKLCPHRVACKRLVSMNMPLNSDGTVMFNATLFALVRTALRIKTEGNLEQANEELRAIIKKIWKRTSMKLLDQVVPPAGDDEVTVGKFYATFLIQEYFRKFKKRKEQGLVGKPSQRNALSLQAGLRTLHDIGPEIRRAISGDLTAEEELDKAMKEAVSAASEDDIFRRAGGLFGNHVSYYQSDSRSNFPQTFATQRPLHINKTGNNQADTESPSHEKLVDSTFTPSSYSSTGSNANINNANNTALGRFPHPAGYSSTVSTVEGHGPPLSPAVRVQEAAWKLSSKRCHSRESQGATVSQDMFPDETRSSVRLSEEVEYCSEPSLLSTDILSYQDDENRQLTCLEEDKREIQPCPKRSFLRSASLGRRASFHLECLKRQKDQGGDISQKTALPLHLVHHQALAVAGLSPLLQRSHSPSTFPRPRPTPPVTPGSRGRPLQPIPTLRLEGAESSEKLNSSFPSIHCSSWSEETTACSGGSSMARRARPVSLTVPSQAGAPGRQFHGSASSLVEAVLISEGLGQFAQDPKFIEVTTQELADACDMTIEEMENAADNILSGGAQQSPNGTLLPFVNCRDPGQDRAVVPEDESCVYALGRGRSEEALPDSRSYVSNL
T4 sequence (P54290 25-944 partner limits assumed, other chains not shown): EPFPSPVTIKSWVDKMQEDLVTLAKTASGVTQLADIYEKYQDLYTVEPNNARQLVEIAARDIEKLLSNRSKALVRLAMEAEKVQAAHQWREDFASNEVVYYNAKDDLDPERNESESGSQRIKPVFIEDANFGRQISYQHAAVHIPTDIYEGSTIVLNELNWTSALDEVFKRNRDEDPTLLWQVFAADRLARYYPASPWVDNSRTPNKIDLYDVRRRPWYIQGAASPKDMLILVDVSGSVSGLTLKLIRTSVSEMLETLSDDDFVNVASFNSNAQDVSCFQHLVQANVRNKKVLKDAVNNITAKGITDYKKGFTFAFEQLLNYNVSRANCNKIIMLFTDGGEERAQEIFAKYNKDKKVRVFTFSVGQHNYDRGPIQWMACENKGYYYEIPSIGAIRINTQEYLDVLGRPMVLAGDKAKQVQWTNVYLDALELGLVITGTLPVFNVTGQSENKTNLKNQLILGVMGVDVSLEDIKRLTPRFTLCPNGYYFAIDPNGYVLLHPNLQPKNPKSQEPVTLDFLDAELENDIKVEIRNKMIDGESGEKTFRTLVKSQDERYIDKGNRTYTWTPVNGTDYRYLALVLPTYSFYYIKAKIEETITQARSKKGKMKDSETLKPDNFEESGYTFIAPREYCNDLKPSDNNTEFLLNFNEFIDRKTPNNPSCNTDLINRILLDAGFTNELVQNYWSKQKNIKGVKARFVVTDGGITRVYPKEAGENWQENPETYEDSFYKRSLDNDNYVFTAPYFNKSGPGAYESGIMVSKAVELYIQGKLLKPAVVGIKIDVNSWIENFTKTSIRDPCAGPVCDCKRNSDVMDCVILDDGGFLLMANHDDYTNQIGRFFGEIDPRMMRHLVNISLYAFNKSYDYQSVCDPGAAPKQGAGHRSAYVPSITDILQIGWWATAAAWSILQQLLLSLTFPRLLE
T4 sequence (P54290 945-1091 partner limits assumed, other chains not shown): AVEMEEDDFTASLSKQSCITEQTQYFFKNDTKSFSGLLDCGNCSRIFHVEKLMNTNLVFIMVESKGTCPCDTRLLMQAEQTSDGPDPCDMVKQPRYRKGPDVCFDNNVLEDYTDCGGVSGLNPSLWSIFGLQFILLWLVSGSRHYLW
The experiment in a line: Competition binding of [3H]nitrendipine to membrane fragments of rat cardiac muscle. The note with it: [3H]nitrendipine. As to the method:
The protocols for these experiments are given below.
Determination of the Activity of al Antagonists at Calcium Channels
Briefly, the tissue was minced and homogenized in 50 mM Tris-HCl (pH 7.4) containing 0.1 mM phenylmethylsulfonyl fluoride. The homogenates were centrifuged at 1000 g for 15 minutes, the resulting supernatant was centrifuged at 45,000 g for 15 minutes. The 45,000 g pellet was suspended in buffer and centrifuged a second time. Aliquots of membrane protein were incubated for 30 minutes at 37° C. in the presence of [3H]nitrendipine (1 nM), and nonspecific binding was determined in the presence of 10 μM nifedipine. The bound radioligand was separated by filtration through GF/B filters using a cell harvester.

Setting [4] is: cloned human receptor, LM(tk-) cell membranes, mean, read-out: PKi alpha-1 1b (converted).
Where [5] appears, read: cloned human receptor, LM(tk-) cell membranes, mean, read-out: PKi alpha-1 1a (converted).
The mark [6] stands for this setting: cloned human receptor, LM(tk-) cell membranes, mean, read-out: PKi alpha-1 1c (converted).
The mark [7] stands for this setting: rat cardiac muscle membranes, mean, read-out: PKi Ca (converted).
[8] abbreviates: PKi alpha-1 1b, cloned human receptor, LM(tk-) cell membranes, mean.
Where [9] appears, read: PKi alpha-1 1a, cloned human receptor, LM(tk-) cell membranes, mean.
Where [10] appears, read: PKi alpha-1 1c, cloned human receptor, LM(tk-) cell membranes, mean.
Setting [11] is: pKi alpha-1 1b, cloned human α1B receptor, LM(tk−) cell membranes.
The mark [12] stands for this setting: pKi alpha-1 1a, cloned human α1A receptor, LM(tk−) cell membranes.
Setting [13] is: pKi alpha-1 1c, cloned human α1C receptor, LM(tk−) cell membranes.
The mark [14] stands for this setting: rat cardiac muscle membrane fragments, L-type calcium channel, read-out: pKi Ca (converted).

Like-named read-outs stand apart in the source and are kept apart here.

The melting point is the temperature of the solid-liquid transition. As to `CCC1=C(C(=O)OCCC#N)C(c2ccc([N+](=O)[O-])cc2)C(C(=O)NCCCN2CCC(C(=O)OC)(c3ccccc3)CC2)=C(COCCN=[N+]=[N-])N1` (stereo not drawn) [Example 226, 2-((2-Azidoethyl)oxy) methyl-5-(2-cyanoethoxy) carbonyl-6-ethyl-1,4-dihydro-3-(N-(3-(4-methoxycarbonyl-4-phenylpiperidin-1-yl)propyl))carboxamido-4-(4-nitro)phenylpyridine], the melting point was in the range of 54 to 60 °C. Besides, the Ki in data set [1] (setting [4]) is 0.0977 µM. Besides, the Ki in data set [2] (setting [5]) was 0.224 µM. In data set [3] (setting [6]), the Ki was 0.011 µM. For the same molecule, the Ki at L-type calcium channel (setting [7]) is 8.71 µM.

`CCC1=C(C(=O)OCCC#N)C(c2ccc([N+](=O)[O-])cc2)C(C(=O)NCCCN2CCC(c3ccccc3)CC2)=C(COC)N1` (stereo not drawn) [Example 221, 5-(2-Cyanoethoxy) carbonyl-6-ethyl-1,4-dihydro-2-methyloxymethyl-4-(4-nitro)phenyl-3-(N-(3-(4-phenylpiperidin-1-yl)propyl))carboxamidopyridine] showed a melting point of 55 to 63 °C. For the same molecule, the Ki in data set [1] (setting [4]) is 0.0525 µM. Also, the Ki in data set [2] (setting [5]) is 0.186 µM. For the same molecule, the Ki in data set [3] (setting [6]) is 0.00617 µM. Also, the Ki on L-type calcium channel (setting [7]) was 14.1 µM.

With `CCC1=C(C(=O)O)C(c2ccc([N+](=O)[O-])cc2)C(C(=O)NCCCN2CCC(c3ccccc3)(c3ccccc3)CC2)=C(COCCN)N1` (stereo not drawn) [Example 219, 2-((2-Aminoethyl)oxy)methyl-6-ethyl-1,4-dihydro-4-(4-nitro)phenyl-3-(N-(3-(4,4-diphenylpiperidin-1-yl)propyl))carboxamidopyridine-5-carboxylic Acid], the melting point is 180 °C (dec.). This molecule also showed a Ki in data set [1] (setting [8]) of 1.23 µM. For the same molecule, in data set [2] (setting [9]), the Ki is 2.69 µM. In data set [3] (setting [10]), this molecule had a Ki of 0.0302 µM. In addition, at L-type calcium channel (setting [7]), the Ki is 575 µM.

The molecule `CCC1=C(C(=O)O)C(c2ccc([N+](=O)[O-])cc2)C(C(=O)NCCCN2CCC(C(=O)OC)(c3ccccc3)CC2)=C(COCCN=[N+]=[N-])N1` (stereo not drawn) [Example 227, 2-((2-Azidoethyl)oxy)methyl-6-ethyl-1,4-dihydro-3-(N-(3-(4-methoxycarbonyl-4-phenylpiperidin-1-yl)propyl))carbo xamido-4-(4-nitro)phenylpyridine-5-carboxylic Acid] displayed a melting point of 110 to 120 °C. Besides, the Ki in data set [1] (setting [4]) is 2.63 µM. In data set [2] (setting [5]), the Ki was 5.13 µM. Further, the Ki in data set [3] (setting [6]) is 0.0234 µM. Also, at L-type calcium channel (setting [7]), the Ki was 70.8 µM.

In turn, `COc1ccc(C2(c3ccccc3)CCN(CCCNC(=O)C3=C(COCCN=[N+]=[N-])NC(C)=C(C(N)=O)C3c3ccc([N+](=O)[O-])cc3)CC2)cc1` (stereo not drawn) [Example 184, 2-[(2-Azidoethoxy)methyl]-5-carboxamido-1,4-dihydro-3-{N-[3-(4-(4-methoxyphenyl)-4-phenylpiperidin-1-yl)propyl]}carboxamido-6-methyl-4-(4-nitrophenyl)pyridine] returned a melting point of 105 to 107 °C. Further, in data set [1] (setting [8]), the Ki is 0.174 µM. In data set [2] (setting [9]), this molecule showed a Ki of 0.741 µM. The Ki in data set [3] (setting [10]) is 0.00955 µM. On L-type calcium channel (setting [7]), the Ki is 12.3 µM.

On to `CCNC(=O)C1=C(CC)NC(COCCN=[N+]=[N-])=C(C(=O)NCCCN2CCC(C(=O)OC)(c3ccccc3)CC2)C1c1ccc([N+](=O)[O-])cc1` (stereo not drawn) [Example 230, 2-((2-Azidoethyl)oxy)methyl-6-ethyl-5-N-ethylcarboxamido-1,4-dihydro-3-(N-(3-(4-methoxycarbonyl-4-phenylpiperidin-1-yl)propyl))carboxamido-4-(4-nitro)phenylpyridine], for which the melting point was 70 °C (dec.). Also, the Ki in data set [1] (setting [4]) is 0.692 µM. Also, in data set [2] (setting [5]), the Ki was 1.78 µM. Besides, in data set [3] (setting [6]), the Ki is 0.00871 µM. For the same molecule, the Ki on L-type calcium channel (setting [7]) was 9.12 µM.

On to `CCC1=C(C(=O)NC)C(c2ccc([N+](=O)[O-])cc2)C(C(=O)NCCCN2CCC(C(=O)OC)(c3ccccc3)CC2)=C(COCCN=[N+]=[N-])N1` (stereo not drawn) [Example 228, 2-((2-Azidoethyl)oxy)methyl-6-ethyl-1,4-dihydro-3-(N-(3-(4-methoxycarbonyl-4-phenylpiperidin-1-yl)propyl))carbo xamido-5-N-methylcarboxamido-4-(4-nitro)phenylpyridine], for which the melting point lay within 73 to 83 °C. In addition, the Ki in data set [1] (setting [4]) was 1.48 µM. Further, the Ki in data set [2] (setting [5]) is 3.47 µM. Moreover, in data set [3] (setting [6]), the Ki is 0.0166 µM. In addition, the Ki on L-type calcium channel (setting [7]) was 33.9 µM.

For the molecule `CCC1=C(C(=O)NCCCN2CCC(c3ccccc3)(c3ccccc3)CC2)C(c2ccc([N+](=O)[O-])cc2)C(C(=O)NC(C)C)=C(CC)N1` (stereo not drawn) [Example 132], the melting point was 201 °C (dec.). Further, the Ki in data set [1] (setting [11]) is 0.389 µM. In data set [2] (setting [12]), the Ki is 0.776 µM. Moreover, the Ki in data set [3] (setting [13]) was 0.0575 µM. Besides, the Ki at L-type calcium channel (setting [14]) is 79.4 µM.

Regarding `CCCC1=C(C(=O)O)C(c2ccc([N+](=O)[O-])cc2)C(C(=O)NCCCN2CCC(c3ccccc3)(c3ccccc3)CC2)=C(CCC)N1` (stereo not drawn) [Example 161, 1,4-Dihydro-4-(4-nitrophenyl)-5-{N-[3-(4,4-diphenylpiperidin-1-yl)propyl]}carboxamido-2,6-dipropylpyridine-3-carboxylic acid], the melting point was 126 to 130 °C. Also, the Ki in data set [1] (setting [11]) was 0.407 µM. Moreover, the Ki in data set [2] (setting [12]) was 1.32 µM. Besides, the Ki in data set [3] (setting [13]) is 0.0389 µM. Besides, the Ki on L-type calcium channel (setting [14]) was 1000 µM.
